Measured values taken from patent publication US8735375B2, “Therapeutic compositions” (Leo Laboratories Limited, priority 2005, dated 2014).

Columns and labels:
Format in all cases: physicochemical
[1] = Stability study of I3A in solvents/excipients at room temperature (HPLC ratio of isoform 'b' to 'a' and 'c')
Experimental: A stability study of I3A in the following solvent/excipients/excipient combinations was performed over 14 days (except where otherwise stated) at room temperature:
A 0.5 mg/ml stock solution of I3A in acetonitrile was prepared. Aliquots of 1.0 ml were transferred to individual glass sample vials by a burette; the solutions were dried by air jet and then 1.0 g of the respective solvent/excipient/excipient combination was added to the vials. On Day 0, Day 5 and Day 14, aliquots of the stability samples were removed for HPLC analysis using the chromatographic conditions described under “Stability in DMSO”, below. Stability was expressed as the ratio of peak ‘b’ to peak ‘a’ (and peak ‘c’ if present), with a high ratio indicating stability in a particular excipient.
The chromatographic conditions employed for the excipients stability study were as follows:
It is assumed that for an excipient in which I3A is not stable, other like excipients will not be suitable.

[2] = Stability study of I3A in solvents at 4-8° C.; conditions: 14 days
Experimental: The stability of I3A in various solvents at 4-8° C. was investigated. A stock solution of 1.26 mg of I3A was weighed out and dissolved in 2 ml acetone. This stock solution was used to prepare the stability samples as follows:
Aliquots of 100 μl of stock solution were transferred to individual glass HPLC vials via a Hamilton syringe, with careful rinsing and drying of the syringe between each sample. The samples were dried down by air jet and then 0.5 ml of the appropriate test solvent system added. The solvent systems were tested in triplicate and are listed below:
Blank samples were also prepared in triplicate using 100 μl of acetone in place of the stock solution. The blank samples were then dried down and 0.5 ml acetone added to each vial. The vials were all crimped, sealed with Parafilm® and placed at 4-8° C. for the duration of the stability study. HPLC analysis was performed on the samples on Day 0, Day 1, Day 5 and Day 14 of the stability study. The samples were prepared for the HPLC assay as described below:
The stability samples were removed from 4-8° C. and left at ambient temperature for 30 mins. Aliquots of 100 μl were transferred to fresh glass HPLC vials using a Hamilton syringe, with careful, rinsing and drying of the syringe between each sample. To facilitate drying of the samples, 0.5 ml of acetone was added to each vial and then the samples were dried down by air jet. The samples were reconstituted with 1 ml of acetonitrile and analysed by HPLC using the chromatographic conditions specified above.

[3] = Stability of I3A at various pH's (buffers); conditions: room temperature
Experimental: The stability of I3A was investigated at pH 4.5 in two buffers i.e. monopotassium phosphate/disodium phosphate and acetic acid/ammonium acetate for 24 h at room temperature.

[4] = Stability of I3A 'b' in isopropanol gel (pH 6.5); conditions: 0.02% (w/w) I3A 'b' in isopropanol gel pH 6.5; 2-8° C., RTP and 40° C.
Experimental: The stability of I3A ‘b’ in an isopropanol gel preparation (pH 6.5) was investigated. The protocol was as follows:
The Carbopol® was dispersed in the water and glycerin and dissolved by heating to 40° C. in a water bath. The propyl alcohol was then added to this solution. The cyclomethicone was dissolved in the isopropyl alcohol and this second solution was mixed well with the Carbopol® solution, and then water was added, with stirring, to 100%. The pH of the gel was brought to 6.5 with the dropwise addition of ethanolamine. The isopropanol gel was stored at 2-8° C. until use.
To investigate the stability of I3A ‘b’ in isopropanol gel (pH 6.5), a 0.02% (w/w) I3A ‘b’/Visopropanol gel formulation was prepared and divided into three samples for storage at 2-8° C., RTP and 40° C. At regular time points the samples were analysed in duplicate for the stability of I3A ‘b’ in terms of the formation of isoform ‘a’, with the results given in FIG. 2.

[5] = Preliminary stability of I3A in fractionated coconut oil
Experimental: Approximately 10 mg of […] was accurately weighed into a 28 ml glass vial and added to approximately 200 mg of benzyl alcohol (exact weight noted), which had previously been filtered through a 0.22 μm MILLEX-GV filter. This mixture was periodically vortexed for approximately 2 h until the […] had dissolved in the benzyl alcohol. […] Aliquots of each formulation (placebo or active) were dispensed into 2 ml screw cap amber glass vials (borosilicate glass), sealed and stored at two storage conditions namely 2-8° C. and 25±2° C. […]

[6] = Preliminary stability of I3A in receiver fluid 20% v/v ethanol/citrate buffer (pH 3.0); conditions: 37° C., after 18 h
Experimental: The receiver fluid employed to try and maintain sink conditions was 20% v/v ethanol/citrate buffer (pH 3.0) and this was incorporated into the Franz cell and stirred constantly with a magnetic stirrer. Preliminary stability studies were conducted on I3A in 20% v/v ethanol/citrate buffer (pH 3.0) at 37° C. over ca. 18 h. […] For the purpose of the Franz cell study this was considered acceptable.

[7] = Kinetic solubility of I3A in 20% v/v ethanol/citrate buffer (pH 3.0); conditions: aqueous with cosolvent or surfactant or cyclodextrin, kinetic from dmso stock, 25° C.
[8] = Dilution of I3A with normal saline (isoform conversion)
Text: Oils may also be used in the present invention. The use of an emulsion based intralesional formulation has been reported for the treatment of psoriasis (Ho et al., 1990). Prior to administration, a vehicle, such as polyoxyethylated castor oil, is normally diluted with saline to form the emulsion. […] This conversion may be minimised if the administration time of the formulation is short.

[9] = I3A in Mineral oil, room temperature, 14 days

C/C=C(/C)C(=O)O[C@H]1C(C)=C[C@]23C(=O)[C@H](C=C(CO)[C@@H](O)[C@]12O)[C@H]1[C@@H](C[C@H]3C)C1(C)C [Formulation I3A, ingenol-3-angelate]
Stable? ([1]; I3A in 2-Hydroxypropyl-β-cyclodextrin (Cavasol)/PO4 pH 4.5, room temperature, 14 days): √
Stable? ([1]; I3A in Acetone, room temperature, 14 days): stable and √
Stable? ([1]; I3A in Acetonitrile, room temperature, 14 days): stable and √
Stable? ([1]; I3A in Ammonium buffer pH 4.5, room temperature): stable and √
Comments ([1]; I3A in Captisol/H2O, room temperature, 7 days study (comment continues: present)): Isoforms ‘a’ and ‘c’
Comments ([1]; I3A in Cavasol/H2O, room temperature, 14 days): Large peak for isoform ‘c’
Comments ([1]; I3A in Cavasol/PO4 pH 4.5, room temperature, 14 days): Some precipitation of I3A
Stable? ([1]; I3A in DMSO, room temperature, 10 days study): stable and √
Comments ([1]; I3A in Methanol, room temperature, 14 days): Isoform ‘a’ forms
Comments ([1]; I3A in Methanol/water (70/30), room temperature, 14 days): Isoform ‘a’ then ‘c’ form
Stable? ([1]; I3A in Miglyol 810, room temperature, 14 days): √
Comments [1, 9]: Precipitation of I3A
Stable? [1, 9]: √
Comments ([1]; I3A in Oleic acid, room temperature, 14 days (isoform 'a' present, shoulder on 'b', 'c' forming)): chromatogram. isoform ‘a’
Stable? ([1]; I3A in Phosphate buffer pH 4.5, room temperature, 14 days): stable and √
Comments ([1]; I3A in Phosphate buffer pH 5.5, room temperature, 14 days): Isoform ‘a’ forms
Comments ([1]; I3A in Phosphate buffer pH 6.5, room temperature, 14 days): Isoform ‘a’ then ‘c’ form
Stable? ([1]; I3A in Polyethylene glycol, room temperature, 14 days): √
Comments ([1]; I3A in Propylene glycol, room temperature, 14 days (comment continues: isoforms)): Formation of ‘a’ and ‘c’
Comments ([1]; I3A in Sodium hyaluronate/H2O, room temperature, 2 days study): Isoform ‘a’ present
Stable? ([1]; I3A in Sodium hyaluronate/PO4 pH 4.5, room temperature, 2 days study): √
Stable? ([1]; I3A in Tween 80/Span 80/H2O, room temperature, 14 days): √
Stable? ([1]; I3A in Tween 80/Span 80/PO4 pH 4.5, room temperature, 14 days): √
Comments ([1]; I3A in Water, room temperature, 14 days): Isoform ‘a’ then ‘c’ form
Stable? ([1]; I3A in β-cyclodextrin sulphobutyl ether (Captisol)/PO4 pH 4.5, room temperature, 7 days study): √
stability (predominance of peak 'b') ([2]; 100% v/v acetone): stable
stability (predominance of peak 'b') ([2]; 100% v/v acetonitrile): stable
isomer formation ([2]; protic solvents (methanol, methanol/water, water)): formation of isomer ‘a’ and then isomer ‘c’ increases rapidly
stability (predominance of isoform 'b') ([3]; pH 4.5, monopotassium phosphate/disodium phosphate and acetic acid/ammonium acetate buffers, 24 h): stable
stability ([3]; pH 5.5, 6.5 and 7.0, 14 days): decrease with an increase in pH
stability in terms of the formation of isoform 'a' [4]: rearranges to isoform ‘a’ and subsequently isoform ‘c’
% I3A ‘a’ (isoform ‘a’ as a percentage of isoform ‘a’ and I3A ‘b’) ([5]; 0.1% w/w I3A in fractionated coconut oil/2% benzyl alcohol, Time 0): 1.90%
% I3A ‘a’ ([5]; Fresh sample I3A in Acetonitrile at time 43 days): 2.14%
% I3A ‘a’ (isoform ‘a’ as a percentage of isoform ‘a’ and I3A ‘b’) ([5]; Fresh sample I3A in Acetonitrile at time zero): 2.50%
% I3A ‘a’ ([5]; I3A in fractionated coconut oil formulation, Time 5 days (2-8° C.)): 1.86%
% I3A ‘a’ ([5]; I3A in fractionated coconut oil formulation, Time 5 days (25° C.)): 1.97%
% I3A ‘a’ ([5]; I3A in fractionated coconut oil formulation, Time 20 days (2-8° C.)): 1.94%
% I3A ‘a’ ([5]; I3A in fractionated coconut oil formulation, Time 20 days (25° C.)): 1.93%
% I3A ‘a’ ([5]; I3A in fractionated coconut oil formulation, Time 28 days (2-8° C.)): 1.93%
% I3A ‘a’ ([5]; I3A in fractionated coconut oil formulation, Time 28 days (25° C.)): 1.94%
% I3A ‘a’ ([5]; I3A in fractionated coconut oil formulation, Time 43 days (2-8° C.)): 1.95%
% I3A ‘a’ ([5]; I3A in fractionated coconut oil formulation, Time 43 days (25° C.)): 1.91%
change in percentage of isoform ‘a’ during storage ([5]; I3A in fractionated coconut oil, 2-8 and 25° C., 43 days): no increase in the percentage of isoform ‘a’
percentage peak area increase in isoform ‘a’ [6]: 0.26%
solubility kinetic [7]: 509.7 ± 3 µg/mL
conversion of isoform 'b' to 'a' [8]: increases the conversion of isoform ‘b’ to ‘a’
